Like-named read-outs stand apart in the source and are kept apart here.
Legend:
[1] = test system: hypothermia induced by reserpine; assay: Anti-reserpine activity: antagonistic effect on hypothermia induced by reserpine; assay type: in vivo, male STD-ddY strain mice; conditions: p.o.; for ED50: Mus musculus, po, 4 h, reserpine 5 mg/kg i.p.
Protocol: Pharmacological experiments have been done on the compound of the present invention, some known and novel analogous compounds and an antidepressant on the market, as mentioned below. In the experiments, ED50 was calculated by Litchfield-Wilcoxon method. This effect was examined according to the method of […]. 2, 725 (1963)], using male STD-ddY strain mice weighing 20-25 g. […] Rectal temperature of each mouse was measured 4 hours later with a thermister (Shibaura Electric, BMG III-130).

[2] = test system: ptosis induced by tetrabenazine; assay: Anti-tetrabenazine activity: antagonistic effect on ptosis induced by tetrabenazine; assay type: in vivo, male STD-ddY strain mice; conditions: Mus musculus, po; tetrabenazine 70 mg/kg i.p.; Table 2
Protocol: Pharmacological experiments have been done on the compound of the present invention, some known and novel analogous compounds and an antidepressant on the market, as mentioned below. In the experiments, ED50 was calculated by Litchfield-Wilcoxon method. Male STD-ddY strain mice, weighing 20-25 g, were used in groups of 10 mice each. […] Two hours after the tetrabenazine injection, the degree of eyelid closure (ptosis) was assessed on the basis of macroscopic scoring (0: no closure of the eyelid, 1: 1/4 closure, 2: 2/4 closure, 3: 3/4 closure and 4: complete closure), essentially according to the method of P. A. J. Janssen [Arzneim. Forsch. 15, 104 (1965)]. ED50 was calcuated for each compound.

[3] = test system: mouse-killing behavior of olfactory bulb-ablated rats; assay: Suppressing effect on mouse-killing behavior in olfactory bulb-ablated rats; assay type: in vivo, male Wistar strain rats
Protocol: (§1) Pharmacological experiments have been done on the compound of the present invention, some known and novel analogous compounds and an antidepressant on the market, as mentioned below. In the experiments, ED50 was calculated by Litchfield-Wilcoxon method.
Male Wistar strain rats, weighing 240-260 g, which had developed mouse-killing behavior after ablation of the olfactory bulb according to the method of Z. P. Horovitz [Int. J. Neuropharmacol. 5, 405 (1966)], were used in groups of 15 animals each. Each test compound was given intraperitoneally to the rats in 6 different doses, and 1 hours later the rats were each tested as to whether they killed a mouse or not. ED50 was calculated for each compound.

[4] = test system: spontaneous locomotor activity; assay: Inhibitory effect on spontaneous locomotor activity; assay type: in vivo, male STD-ddY strain mice
Protocol: as §1
Male mice of STD-ddY strain, weighing 20-25 g, were used in groups of 5 mice each. Each test compound was given orally to the mice in 5 different doses, and 2 hours later the spontaneous locomotor activity of each mouse was measured for 3 minutes by means of an Animex locomotor activity meter (made by Farad Electronics). ED50 was calculated for each compound. The ED50 means the dose of test compound in which the locomotor activity was reduced to 50% of that of control group receiving saline.

[5] = test system: methamphetamine-induced locomotor activity; assay: Anti-methamphetamine effect (inhibitory effect on methamphetamine-induced locomotor activity); assay type: in vivo, male STD-ddY strain mice
Protocol: as §1
Male STD-ddY strain mice, weighing 20-25 g, were used in groups of 10 mice each. Groups of mice were injected intraperitoneally with 4 mg/kg of methamphetamine, and 30 minutes later each test compound was injected intraperitoneally in 3 different doses. One hour after the injection of methamphetamine, locomotor activity of each mouse was measured for 10 minutes with an Animex locomotor activity meter.

[6] = test system: brain homovanillic acid (HVA); assay: Effect on brain monoamine metabolites: HVA; assay type: in vivo, male Wistar strain rats; conditions: 100 mg/kg p.o.; for Brain HVA, % of control: *P<0.01
Protocol: (§2) Each test compound was given orally to the rats in a dose of 100 mg/kg and, 1, 3 and 6 hours later the rats were sacrificed. […] The concentrations of the monoamine metabolites were calculated in terms of ng/g wet brain tissue and expressed as % of the concentrations of controls receiving saline.

[7] = test system: brain 3-methoxy-4-hydroxyphenylethylene glycol sulfate (MOPEG-SO4); assay: Effect on brain monoamine metabolites: MOPEG-SO4; assay type: in vivo, male Wistar strain rats; conditions: 100 mg/kg p.o.; for Brain MOPEG-SO4, % of control: *P<0.01
Protocol: as §2

Acute toxicity = conditions: mouse, in vivo, 7 days observation
Protocol: (§3) Male STD-ddY strain mice, weighing 20-25 g, were used. Each test compound was given orally or intraperitoneally to the mice (each group: 10 mice) in 5 to 7 different doses, and their mortality was examined during the observation period of 7 days. The median lethal dose (LD50) was calculated for each compound by the probit method.

mice = assay: Acute toxicity; conditions: mouse, in vivo
Protocol: as §3

antidepressant activity = assay: Antidepressant activity, overall (Test 1); assay type: in vivo, male STD-ddY strain mice; male Wistar strain rats
Protocol: This effect was examined according to the method of […]. 2, 725 (1963)], using male STD-ddY strain mice weighing 20-25 g. […] Rectal temperature of each mouse was measured 4 hours later with a thermister (Shibaura Electric, BMG III-130). […] Male STD-ddY strain mice, weighing […], were used in groups of 10 mice each. […] The mice were tested for catalepsy 1 hour after the administration of test compounds. ED50 was calculated for each compound. […] Male STD-ddY strain mice, weighing 20-25 g, were used in groups of 10 mice each. […] Two hours after the tetrabenazine injection, the degree of eyelid closure (ptosis) was assessed on the basis of macroscopic scoring (0: no closure of the eyelid, 1: 1/4 closure, 2: 2/4 closure, 3: 3/4 closure and 4: complete closure), essentially according to the method of P. A. J. Janssen [Arzneim. Forsch. 15, 104 (1965)]. ED50 was calcuated for each compound. […] Male Wistar strain rats, weighing 240-260 g, which had developed mouse-killing behavior after ablation of the olfactory bulb according to the method of Z. P. Horovitz [Int. J. Neuropharmacol. 5, 405 (1966)], were used in groups of 15 animals each. […] ED50 was calculated for each compound.

[8] = test system: spontaneous and methamphetamine-induced locomotor activities; assay: Neuroleptics-like activity, overall (Test 2); assay type: in vivo, male STD-ddY strain mice; conditions: overall conclusion

With `CCN1CCN(c2cc(-c3ccccc3)c3ccccc3n2)CC1.Cl.Cl` [A, 2-(4-Ethyl-1-piperazinyl)-4-phenylquinoline dihydrochloride] the ED50 ([1]; Table 1, read-out: Anti-reserpine activity ED50, hypothermia) was 5.8 mg/kg, the ED50 ([1]; Table 2, read-out: Anti-reserpine ED50, hypothermia) was 5.8 mg/kg and the “Potency in antagonizing reserpine hypothermia relative to imipramine” value ([1]; versus imipramine) was 3.7 times more powerful. For the same molecule, the ED50 [2] was 1.8 mg/kg, the ED50 ([3]; Rattus norvegicus, ip, 1 hour after dosing, read-out: Suppressing effect on mouse-killing behavior of olfactory bulb-ablated rats, ED50) was 5 mg/kg and the “Suppression of mouse-killing behavior (in words)” value ([3]; versus imipramine, i.p.) was “as potent as imipramine”. The ED50 ([4]; Mus musculus, po, 2 hours after dosing, read-out: Spontan. locomotor ED50) was 58.7 mg/kg, the “Activity relative to chlorpromazine, spontaneous locomotor activity” value ([4]; fraction of chlorpromazine activity, p.o.) was “about 1/8” and the ED50 ([5]; Mus musculus, ip, methamphetamine 4 mg/kg i.p., read-out: Anti-methamphetamine ED50) was 8 mg/kg. The “Activity relative to chlorpromazine, methamphetamine-induced locomotor activity” value ([5]; fraction of chlorpromazine activity, i.p.) was “about 1/8”, the “Brain HVA concentration / dopamine turnover (in words)” value [6] was “marked increase in brain HVA concentration” and the “Brain HVA, % of control” value ([6]; 1 hour) was 193 % of control. For the same molecule, the “Brain HVA, % of control” value ([6]; 3 hours) was 186 % of control, the “Brain HVA, % of control” value ([6]; 6 hours) was 186 % of control and the “Brain MOPEG-SO4 concentration / noradrenaline turnover (in words)” value [7] was “significant decrease in brain MOPEG-SO4 concentration”. For the same molecule, the “Brain MOPEG-SO4, % of control” value ([7]; 1 hour) was 82 % of control, the “Brain MOPEG-SO4, % of control” value ([7]; 3 hours) was 70 % of control and the “Brain MOPEG-SO4, % of control” value ([7]; 6 hours) was 63 % of control. For the same molecule, the LD50 at 168 h (Acute toxicity; ip) was 119 mg/kg, the LD50 at 168 h (Acute toxicity; po) was 568 mg/kg and the “Acute toxicity (in words)” value (mice) was “comparable to or somewhat weaker than that of imipramine”. The “Anti-reserpine activity (in words)” value (antidepressant activity; hypothermia and catalepsy, p.o.) was “more potent anti-reserpine activity than imipramine”, the “Antidepressant activity (in words)” value (antidepressant activity; overall conclusion) was “more potent than its analogues, compounds 1 and 2 and also than imipramine” and the “Anti-reserpine and anti-tetrabenazine potency relative to compounds 4 and 5” value (antidepressant activity; versus compounds 4 and 5, Table 2, p.o.) was 2-17 times more potent. For the same molecule, the “Neuroleptics-like activity (in words)” value [8] was “shows some neuroleptics-like effects”.

Reference: patent US4237135A, “2-(4-Ethyl-1-piperazinyl)-4-phenylquinoline, process for preparation thereof, and composition thereof” (Dainippon Pharmaceutical Co., Ltd., priority 1978, dated 1980)
